Consider 3 molecules from patent US20250223268A1, “4-Methylsulfonylbenzamide Compound, Preparation Method, Herbicidal Composition And Use” (Jiangsu Flag Chemical Industry Co., Ltd., priority 2022, published 2025).

Assay type in all cases: in vivo
The subject of one series is Zea mays. In words: Greenhouse herbicidal activity and crop safety comparison (Test Example 2). In a few lines: (§1)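 Fresh weight inhibition, banded into grades A to E (E <20%), was rated 14-21 days after foliar spraying of 3-6 leaf plants, or 14-30 days after a soil spray applied 24 h post-sowing.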
For series [1], the system named is Oryza sativa subsp. japonica. Described as above. A digest of the protocol:
as §1

For series [2], the system named is Echinochloa crusgalli. Described as above. In a few lines:
as §1

The test system of series [3] is Digitaria sanguinalis. Described as above. A digest of the protocol:
as §1

The subject of series [4] is Oryza sativa subsp. indica. Described as above. A digest of the protocol: as §1
In the next series the test system is Eclipta prostrata. In words: Greenhouse herbicidal activity assay, post-emergence. As to conditions: Post-emergence test, rate 150 g a.i./hm^2, grade by fresh weight inhibition rate. In a few lines: (§2)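 Graded A (≥80%) to E (<20%) by fresh weight inhibition, read 14-21 days after spraying. Plants were pot-grown in a growth chamber and received foliar application at the 3-6 leaf stage, being air-dried and returned to the chamber afterwards.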

For series [5], the system named is Echinochloa crusgalli. Described as above. As to conditions: Post-emergence test, rate 150 g a.i./hm^2, grade by fresh weight inhibition rate. In a few lines:
as §2

A further series has as its system Leptochloa chinensis. The series is described as above. As to conditions: Post-emergence test, rate 150 g a.i./hm^2, grade by fresh weight inhibition rate. In a few lines: as §2
For series [6], the system named is Digitaria sanguinalis. The series is described as above. As to conditions: Post-emergence test, rate 150 g a.i./hm^2, grade by fresh weight inhibition rate. A digest of the protocol: as §2
The next series relates to Cyperus iria. The description is as above. The settings on record: Post-emergence test, rate 150 g a.i./hm^2, grade by fresh weight inhibition rate. A digest of the protocol:
as §2

Regarding `CC(C)S(=O)(=O)c1c(S(C)(=O)=O)ccc(C(=O)Nc2ncnn2C)c1Cl` [Compound 2-10, 2-chloro-3-(isopropylsulfonyl)-N-(1-methyl-H-1,2,4-triazol-5-yl)-4-(methylsulfonyl)benzamide], the “Zea mays, grading of fresh weight inhibition rate (crop safety)” value in the series on Zea mays (Rate 75 g/ha) and with Zea mays (Rate 150 g/ha) was “E (Fresh weight inhibition rate<20%)” each time. For the same molecule, the “Oryza sativa subsp. japonica, grading of fresh weight inhibition rate (crop safety)” value in series [1] (Rate 75 g/ha) and in [1] (Rate 150 g/ha) was “E (Fresh weight inhibition rate<20%)” in each case. Further, the inhibition at 75 g/ha lay within 80 to 100% in the series with Echinochloa crusgalli [2] (Echinochloa crus-galli, Rate 75 g/ha, read-out: Echinochloa crusgalli, control efficacy grading (fresh weight inhibition rate)) and 80 to 100% with Digitaria sanguinalis [3] (Digitaria sanguinalis, Rate 75 g/ha, read-out: Digitaria sanguinalis, control efficacy grading (fresh weight inhibition rate)). In addition, the inhibition at 150 g/ha in the series on Echinochloa crusgalli [2] (Echinochloa crus-galli, Rate 150 g/ha, read-out: Echinochloa crusgalli, control efficacy grading (fresh weight inhibition rate)) is 80 to 100%; in the series on Digitaria sanguinalis [3] (Digitaria sanguinalis, Rate 150 g/ha, read-out: Digitaria sanguinalis, control efficacy grading (fresh weight inhibition rate)), 80 to 100%. The “Oryza sativa subsp. indica, grading of fresh weight inhibition rate (crop safety)” value in series [4] (Rate 75 g/ha) and in series [4] (Rate 150 g/ha) was “E (Fresh weight inhibition rate<20%)” each time. The pest or weed control at 150 g/ha in the series on Eclipta prostrata (Eclipta prostrata, read-out: Control efficacy grade, Eclipta prostrata) lay in the range of 80 to 100%; in the series with Echinochloa crusgalli [5] (Echinochloa crus-galli, read-out: Control efficacy grade, Echinochloa crusgalli) it was 80 to 100%; in the series with Leptochloa chinensis (Dinebra chinensis, read-out: Control efficacy grade, Leptochloa chinensis) it was 80 to 100%; in the series on Digitaria sanguinalis [6] (Digitaria sanguinalis, read-out: Control efficacy grade, Digitaria sanguinalis), 80 to 100%; with Cyperus iria (Cyperus iria, read-out: Control efficacy grade, Cyperus iria), 80 to 100%.
For `Cn1ncnc1NC(=O)c1ccc(S(C)(=O)=O)c(S(=O)(=O)C2CCC2)c1Cl` [Compound 2-41], the “Zea mays, grading of fresh weight inhibition rate (crop safety)” value in the series on Zea mays (Rate 75 g/ha) and with Zea mays (Rate 150 g/ha) was “E (Fresh weight inhibition rate<20%)” throughout. Further, the “Oryza sativa subsp. japonica, grading of fresh weight inhibition rate (crop safety)” value in series [1] (Rate 75 g/ha) and in [1] (Rate 150 g/ha) was “E (Fresh weight inhibition rate<20%)” each time. The “Echinochloa crusgalli, control efficacy grading (fresh weight inhibition rate)” value with Echinochloa crusgalli [2] (Rate 75 g/ha) and with Echinochloa crusgalli [2] (Rate 150 g/ha) was “A (Fresh weight inhibition rate≥80% to 100%)” throughout. Also, the “Digitaria sanguinalis, control efficacy grading (fresh weight inhibition rate)” value in the series on Digitaria sanguinalis [3] (Rate 150 g/ha) was “A (Fresh weight inhibition rate≥80% to 100%)”. The “Oryza sativa subsp. indica, grading of fresh weight inhibition rate (crop safety)” value in [4] (Rate 75 g/ha) and in series [4] (Rate 150 g/ha) was “E (Fresh weight inhibition rate<20%)” each time. For the same molecule, in the series with Eclipta prostrata, the “Control efficacy grade, Eclipta prostrata” value is reported as “A (Fresh weight inhibition rate≥80% to 100%)”. Also, in the series on Echinochloa crusgalli [5], the “Control efficacy grade, Echinochloa crusgalli” value was “A (Fresh weight inhibition rate≥80% to 100%)”. The “Control efficacy grade, Digitaria sanguinalis” value in the series with Digitaria sanguinalis [6] was “A (Fresh weight inhibition rate≥80% to 100%)”. Further, the “Control efficacy grade, Cyperus iria” value in the series on Cyperus iria was “A (Fresh weight inhibition rate≥80% to 100%)”.
Turning to `Cn1ncnc1NC(=O)c1ccc(S(C)(=O)=O)c(S(=O)(=O)C2CCCC2)c1Cl` [Compound 2-46], the “Zea mays, grading of fresh weight inhibition rate (crop safety)” value in the series on Zea mays (Rate 75 g/ha) and in the series with Zea mays (Rate 150 g/ha) was “E (Fresh weight inhibition rate<20%)” in each case. For the same molecule, the “Oryza sativa subsp. japonica, grading of fresh weight inhibition rate (crop safety)” value in series [1] (Rate 75 g/ha) and in series [1] (Rate 150 g/ha) was “E (Fresh weight inhibition rate<20%)” throughout. Also, the “Echinochloa crusgalli, control efficacy grading (fresh weight inhibition rate)” value in the series with Echinochloa crusgalli [2] (Rate 75 g/ha) and in the series on Echinochloa crusgalli [2] (Rate 150 g/ha) was “A (Fresh weight inhibition rate≥80% to 100%)” in each case. In the series on Digitaria sanguinalis [3] (Rate 150 g/ha), the “Digitaria sanguinalis, control efficacy grading (fresh weight inhibition rate)” value is “A (Fresh weight inhibition rate≥80% to 100%)”. For the same molecule, the “Oryza sativa subsp. indica, grading of fresh weight inhibition rate (crop safety)” value in [4] (Rate 75 g/ha) and in series [4] (Rate 150 g/ha) was “E (Fresh weight inhibition rate<20%)” each time. In the series with Eclipta prostrata, the “Control efficacy grade, Eclipta prostrata” value is given as “A (Fresh weight inhibition rate≥80% to 100%)”. The “Control efficacy grade, Echinochloa crusgalli” value in the series with Echinochloa crusgalli [5] is reported as “A (Fresh weight inhibition rate≥80% to 100%)”. In addition, the “Control efficacy grade, Leptochloa chinensis” value with Leptochloa chinensis is on record as “A (Fresh weight inhibition rate≥80% to 100%)”. Besides, in the series on Digitaria sanguinalis [6], the “Control efficacy grade, Digitaria sanguinalis” value was “A (Fresh weight inhibition rate≥80% to 100%)”. Also, the “Control efficacy grade, Cyperus iria” value with Cyperus iria is on record as “A (Fresh weight inhibition rate≥80% to 100%)”.

A word on the inhibition: it is the share of the control response that was lost under treatment.
